From the OligoGym collection come the findings set out here.

Oligonucleotides are given in HELM: sugar(base)linkage, 5' to 3'; d 2'-deoxyribose, r ribose, m 2'-O-methylribose, p phosphate. ss, as = sense and antisense strand
Note: test concentration or dose not given here.

The target of the series is Cacnb1 (rat). Put plainly: reporter assay of Huesken 2005. Conditions: siRNA. A general note: A reporter such as luciferase makes a cellular process visible.
“RNA1{r(U)p.r(C)p.r(C)p.r(U)p.r(G)p.r(C)p.r(A)p.r(C)p.r(A)p.r(U)p.r(C)p.r(A)p.r(A)p.r(G)p.r(G)p.r(A)p.r(G)p.r(A)p.r(A)p.d(T)p.d(T)}|RNA2{r(U)p.r(U)p.r(C)p.r(U)p.r(C)p.r(C)p.r(U)p.r(U)p.r(G)p.r(A)p.r(U)p.r(G)p.r(U)p.r(G)p.r(C)p.r(A)p.r(G)p.r(G)p.r(A)p.d(A)p.d(G)}$$$RNA1{StrandType:ss}|RNA2{StrandType:as}$” came in with a normalised inhibition (eCFP-eYFP dual reporter) of 94%.
In the case of “RNA1{r(C)p.r(U)p.r(A)p.r(U)p.r(C)p.r(C)p.r(C)p.r(G)p.r(C)p.r(C)p.r(A)p.r(A)p.r(G)p.r(A)p.r(C)p.r(A)p.r(C)p.r(C)p.r(U)p.d(T)p.d(T)}|RNA2{r(A)p.r(G)p.r(G)p.r(U)p.r(G)p.r(U)p.r(C)p.r(U)p.r(U)p.r(G)p.r(G)p.r(C)p.r(G)p.r(G)p.r(G)p.r(A)p.r(U)p.r(A)p.r(G)p.d(C)p.d(G)}$$$RNA1{StrandType:ss}|RNA2{StrandType:as}$”, the normalised inhibition (eCFP-eYFP dual reporter) was 70.7%.
With “RNA1{r(A)p.r(G)p.r(A)p.r(A)p.r(U)p.r(G)p.r(A)p.r(G)p.r(C)p.r(U)p.r(G)p.r(G)p.r(A)p.r(G)p.r(G)p.r(G)p.r(C)p.r(U)p.r(G)p.d(T)p.d(T)}|RNA2{r(C)p.r(A)p.r(G)p.r(C)p.r(C)p.r(C)p.r(U)p.r(C)p.r(C)p.r(A)p.r(G)p.r(C)p.r(U)p.r(C)p.r(A)p.r(U)p.r(U)p.r(C)p.r(U)p.d(T)p.d(A)}$$$RNA1{StrandType:ss}|RNA2{StrandType:as}$” the figure was 75.3%; with “RNA1{r(G)p.r(A)p.r(G)p.r(U)p.r(G)p.r(A)p.r(A)p.r(A)p.r(U)p.r(C)p.r(G)p.r(A)p.r(G)p.r(C)p.r(G)p.r(G)p.r(A)p.r(U)p.r(C)p.d(T)p.d(T)}|RNA2{r(G)p.r(A)p.r(U)p.r(C)p.r(C)p.r(G)p.r(C)p.r(U)p.r(C)p.r(G)p.r(A)p.r(U)p.r(U)p.r(U)p.r(C)p.r(A)p.r(C)p.r(U)p.r(C)p.d(T)p.d(G)}$$$RNA1{StrandType:ss}|RNA2{StrandType:as}$”, 84.9%.
The value for “RNA1{r(U)p.r(G)p.r(G)p.r(A)p.r(C)p.r(A)p.r(G)p.r(C)p.r(C)p.r(U)p.r(U)p.r(C)p.r(G)p.r(C)p.r(C)p.r(U)p.r(G)p.r(C)p.r(U)p.d(T)p.d(T)}|RNA2{r(A)p.r(G)p.r(C)p.r(A)p.r(G)p.r(G)p.r(C)p.r(G)p.r(A)p.r(A)p.r(G)p.r(G)p.r(C)p.r(U)p.r(G)p.r(U)p.r(C)p.r(C)p.r(A)p.d(G)p.d(T)}$$$RNA1{StrandType:ss}|RNA2{StrandType:as}$” was 39.5%.
With “RNA1{r(U)p.r(G)p.r(G)p.r(U)p.r(G)p.r(G)p.r(G)p.r(A)p.r(C)p.r(C)p.r(A)p.r(U)p.r(C)p.r(G)p.r(C)p.r(U)p.r(C)p.r(A)p.r(A)p.d(T)p.d(T)}|RNA2{r(U)p.r(U)p.r(G)p.r(A)p.r(G)p.r(C)p.r(G)p.r(A)p.r(U)p.r(G)p.r(G)p.r(U)p.r(C)p.r(C)p.r(C)p.r(A)p.r(C)p.r(C)p.r(A)p.d(G)p.d(G)}$$$RNA1{StrandType:ss}|RNA2{StrandType:as}$” the figure was 71.2%.
Substance “RNA1{r(G)p.r(G)p.r(C)p.r(C)p.r(G)p.r(G)p.r(U)p.r(U)p.r(C)p.r(U)p.r(G)p.r(G)p.r(G)p.r(G)p.r(C)p.r(G)p.r(C)p.r(A)p.r(A)p.d(T)p.d(T)}|RNA2{r(U)p.r(U)p.r(G)p.r(C)p.r(G)p.r(C)p.r(C)p.r(C)p.r(C)p.r(A)p.r(G)p.r(A)p.r(A)p.r(C)p.r(C)p.r(G)p.r(G)p.r(C)p.r(C)p.d(C)p.d(A)}$$$RNA1{StrandType:ss}|RNA2{StrandType:as}$” displayed a normalised inhibition (eCFP-eYFP dual reporter) of 79.6%.
“RNA1{r(A)p.r(G)p.r(C)p.r(A)p.r(A)p.r(C)p.r(C)p.r(A)p.r(C)p.r(C)p.r(C)p.r(A)p.r(C)p.r(C)p.r(U)p.r(G)p.r(G)p.r(C)p.r(C)p.d(T)p.d(T)}|RNA2{r(G)p.r(G)p.r(C)p.r(C)p.r(A)p.r(G)p.r(G)p.r(U)p.r(G)p.r(G)p.r(G)p.r(U)p.r(G)p.r(G)p.r(U)p.r(U)p.r(G)p.r(C)p.r(U)p.d(G)p.d(G)}$$$RNA1{StrandType:ss}|RNA2{StrandType:as}$”: the normalised inhibition (eCFP-eYFP dual reporter) came to 31.6%.
“RNA1{r(C)p.r(U)p.r(G)p.r(G)p.r(C)p.r(U)p.r(G)p.r(A)p.r(G)p.r(G)p.r(U)p.r(A)p.r(C)p.r(A)p.r(G)p.r(A)p.r(G)p.r(U)p.r(G)p.d(T)p.d(T)}|RNA2{r(C)p.r(A)p.r(C)p.r(U)p.r(C)p.r(U)p.r(G)p.r(U)p.r(A)p.r(C)p.r(C)p.r(U)p.r(C)p.r(A)p.r(G)p.r(C)p.r(C)p.r(A)p.r(G)p.d(G)p.d(C)}$$$RNA1{StrandType:ss}|RNA2{StrandType:as}$” gave a normalised inhibition (eCFP-eYFP dual reporter) of 34.8%.
Turning to “RNA1{r(U)p.r(A)p.r(C)p.r(A)p.r(U)p.r(C)p.r(C)p.r(G)p.r(C)p.r(U)p.r(G)p.r(A)p.r(G)p.r(A)p.r(G)p.r(G)p.r(C)p.r(A)p.r(G)p.d(T)p.d(T)}|RNA2{r(C)p.r(U)p.r(G)p.r(C)p.r(C)p.r(U)p.r(C)p.r(U)p.r(C)p.r(A)p.r(G)p.r(C)p.r(G)p.r(G)p.r(A)p.r(U)p.r(G)p.r(U)p.r(A)p.d(G)p.d(A)}$$$RNA1{StrandType:ss}|RNA2{StrandType:as}$”, the normalised inhibition (eCFP-eYFP dual reporter) was found to be 39.5%.
The value for “RNA1{r(A)p.r(A)p.r(G)p.r(A)p.r(A)p.r(U)p.r(G)p.r(A)p.r(G)p.r(C)p.r(U)p.r(G)p.r(G)p.r(A)p.r(G)p.r(G)p.r(G)p.r(C)p.r(U)p.d(T)p.d(T)}|RNA2{r(A)p.r(G)p.r(C)p.r(C)p.r(C)p.r(U)p.r(C)p.r(C)p.r(A)p.r(G)p.r(C)p.r(U)p.r(C)p.r(A)p.r(U)p.r(U)p.r(C)p.r(U)p.r(U)p.d(A)p.d(T)}$$$RNA1{StrandType:ss}|RNA2{StrandType:as}$” was 54.2%.
With “RNA1{r(A)p.r(A)p.r(C)p.r(C)p.r(G)p.r(C)p.r(C)p.r(U)p.r(C)p.r(A)p.r(G)p.r(C)p.r(U)p.r(C)p.r(C)p.r(A)p.r(G)p.r(C)p.r(A)p.d(T)p.d(T)}|RNA2{r(U)p.r(G)p.r(C)p.r(U)p.r(G)p.r(G)p.r(A)p.r(G)p.r(C)p.r(U)p.r(G)p.r(A)p.r(G)p.r(G)p.r(C)p.r(G)p.r(G)p.r(U)p.r(U)p.d(T)p.d(T)}$$$RNA1{StrandType:ss}|RNA2{StrandType:as}$” the figure was 46.2%; with “RNA1{r(U)p.r(C)p.r(G)p.r(A)p.r(C)p.r(A)p.r(G)p.r(A)p.r(G)p.r(C)p.r(A)p.r(C)p.r(G)p.r(U)p.r(G)p.r(C)p.r(C)p.r(C)p.r(C)p.d(T)p.d(T)}|RNA2{r(G)p.r(G)p.r(G)p.r(G)p.r(C)p.r(A)p.r(C)p.r(G)p.r(U)p.r(G)p.r(C)p.r(U)p.r(C)p.r(U)p.r(G)p.r(U)p.r(C)p.r(G)p.r(A)p.d(C)p.d(T)}$$$RNA1{StrandType:ss}|RNA2{StrandType:as}$”, 39.9%.
On to “RNA1{r(C)p.r(C)p.r(C)p.r(G)p.r(C)p.r(C)p.r(A)p.r(A)p.r(G)p.r(A)p.r(C)p.r(A)p.r(C)p.r(C)p.r(U)p.r(U)p.r(U)p.r(G)p.r(A)p.d(T)p.d(T)}|RNA2{r(U)p.r(C)p.r(A)p.r(A)p.r(A)p.r(G)p.r(G)p.r(U)p.r(G)p.r(U)p.r(C)p.r(U)p.r(U)p.r(G)p.r(G)p.r(C)p.r(G)p.r(G)p.r(G)p.d(A)p.d(T)}$$$RNA1{StrandType:ss}|RNA2{StrandType:as}$”, for which the normalised inhibition (eCFP-eYFP dual reporter) is 57.6%.
Take “RNA1{r(A)p.r(G)p.r(C)p.r(U)p.r(C)p.r(U)p.r(C)p.r(U)p.r(A)p.r(A)p.r(A)p.r(A)p.r(C)p.r(C)p.r(U)p.r(C)p.r(G)p.r(C)p.r(U)p.d(T)p.d(T)}|RNA2{r(A)p.r(G)p.r(C)p.r(G)p.r(A)p.r(G)p.r(G)p.r(U)p.r(U)p.r(U)p.r(U)p.r(A)p.r(G)p.r(A)p.r(G)p.r(A)p.r(G)p.r(C)p.r(U)p.d(G)p.d(G)}$$$RNA1{StrandType:ss}|RNA2{StrandType:as}$”: the normalised inhibition (eCFP-eYFP dual reporter) was 56.1%.
With “RNA1{r(C)p.r(U)p.r(U)p.r(G)p.r(G)p.r(A)p.r(A)p.r(G)p.r(C)p.r(C)p.r(U)p.r(A)p.r(C)p.r(U)p.r(G)p.r(G)p.r(A)p.r(A)p.r(G)p.d(T)p.d(T)}|RNA2{r(C)p.r(U)p.r(U)p.r(C)p.r(C)p.r(A)p.r(G)p.r(U)p.r(A)p.r(G)p.r(G)p.r(C)p.r(U)p.r(U)p.r(C)p.r(C)p.r(A)p.r(A)p.r(G)p.d(T)p.d(A)}$$$RNA1{StrandType:ss}|RNA2{StrandType:as}$”, the normalised inhibition (eCFP-eYFP dual reporter) was 60.9%.
With “RNA1{r(G)p.r(U)p.r(A)p.r(C)p.r(U)p.r(G)p.r(C)p.r(A)p.r(G)p.r(A)p.r(G)p.r(G)p.r(C)p.r(U)p.r(C)p.r(A)p.r(U)p.r(C)p.r(A)p.d(T)p.d(T)}|RNA2{r(U)p.r(G)p.r(A)p.r(U)p.r(G)p.r(A)p.r(G)p.r(C)p.r(C)p.r(U)p.r(C)p.r(U)p.r(G)p.r(C)p.r(A)p.r(G)p.r(U)p.r(A)p.r(C)p.d(C)p.d(T)}$$$RNA1{StrandType:ss}|RNA2{StrandType:as}$” the figure was 73.6%; with “RNA1{r(G)p.r(C)p.r(C)p.r(A)p.r(A)p.r(A)p.r(A)p.r(C)p.r(C)p.r(G)p.r(C)p.r(C)p.r(U)p.r(C)p.r(A)p.r(G)p.r(C)p.r(U)p.r(C)p.d(T)p.d(T)}|RNA2{r(G)p.r(A)p.r(G)p.r(C)p.r(U)p.r(G)p.r(A)p.r(G)p.r(G)p.r(C)p.r(G)p.r(G)p.r(U)p.r(U)p.r(U)p.r(U)p.r(G)p.r(G)p.r(C)p.d(G)p.d(C)}$$$RNA1{StrandType:ss}|RNA2{StrandType:as}$”, 54.1%; with “RNA1{r(G)p.r(G)p.r(G)p.r(G)p.r(A)p.r(G)p.r(C)p.r(U)p.r(G)p.r(G)p.r(G)p.r(C)p.r(C)p.r(A)p.r(G)p.r(C)p.r(C)p.r(C)p.r(C)p.d(T)p.d(T)}|RNA2{r(G)p.r(G)p.r(G)p.r(G)p.r(C)p.r(U)p.r(G)p.r(G)p.r(C)p.r(C)p.r(C)p.r(A)p.r(G)p.r(C)p.r(U)p.r(C)p.r(C)p.r(C)p.r(C)p.d(G)p.d(G)}$$$RNA1{StrandType:ss}|RNA2{StrandType:as}$”, 19.2%.
The value for “RNA1{r(C)p.r(U)p.r(G)p.r(G)p.r(U)p.r(G)p.r(G)p.r(A)p.r(U)p.r(C)p.r(G)p.r(G)p.r(G)p.r(A)p.r(G)p.r(G)p.r(C)p.r(U)p.r(G)p.d(T)p.d(T)}|RNA2{r(C)p.r(A)p.r(G)p.r(C)p.r(C)p.r(U)p.r(C)p.r(C)p.r(C)p.r(G)p.r(A)p.r(U)p.r(C)p.r(C)p.r(A)p.r(C)p.r(C)p.r(A)p.r(G)p.d(T)p.d(C)}$$$RNA1{StrandType:ss}|RNA2{StrandType:as}$” was 40.7%.
